# Read-outs that look alike come from different tables or passages of the source.
# What was measured:
# [1] = target: T1, human MMP-9 (gelatinase B) (Homo sapiens, UniProt P14780); assay: Inhibition activity against human MMP-9 (gelatinase B), fluorescent peptide substrate; type: biochemical; conditions: compounds of the formula (I)
# T1 construct: endogenous in cells; host or cells: HT1080 human fibrosarcoma cells (ATCC CCL-121), PMA-stimulated; enzyme purified from the culture supernatant
# In short: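 MMP-9 purified from PMA-stimulated (10 ng/ml) HT1080 supernatant, or commercial enzyme (0.0125-0.025 unit/ml or 0.2 μg/ml final), incubated with compound and 10 μM final Mca-Pro-Leu-Gly-Leu-Dpa-Ala-Arg-NH2 fluorescent substrate at 37 °C for 3 h in the dark. Precursor enzyme activated with APMA.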
# [2] = 1st measurement, read-out: MMP-9 inhibition activities IC50, 1st
# [3] = 2nd measurement, read-out: MMP-9 inhibition activities IC50, 2nd
# [4] = average of 1st and 2nd (or single measurement), read-out: MMP-9 inhibition activities IC50, Average
# T1 sequence (P14780 107-707 limits assumed): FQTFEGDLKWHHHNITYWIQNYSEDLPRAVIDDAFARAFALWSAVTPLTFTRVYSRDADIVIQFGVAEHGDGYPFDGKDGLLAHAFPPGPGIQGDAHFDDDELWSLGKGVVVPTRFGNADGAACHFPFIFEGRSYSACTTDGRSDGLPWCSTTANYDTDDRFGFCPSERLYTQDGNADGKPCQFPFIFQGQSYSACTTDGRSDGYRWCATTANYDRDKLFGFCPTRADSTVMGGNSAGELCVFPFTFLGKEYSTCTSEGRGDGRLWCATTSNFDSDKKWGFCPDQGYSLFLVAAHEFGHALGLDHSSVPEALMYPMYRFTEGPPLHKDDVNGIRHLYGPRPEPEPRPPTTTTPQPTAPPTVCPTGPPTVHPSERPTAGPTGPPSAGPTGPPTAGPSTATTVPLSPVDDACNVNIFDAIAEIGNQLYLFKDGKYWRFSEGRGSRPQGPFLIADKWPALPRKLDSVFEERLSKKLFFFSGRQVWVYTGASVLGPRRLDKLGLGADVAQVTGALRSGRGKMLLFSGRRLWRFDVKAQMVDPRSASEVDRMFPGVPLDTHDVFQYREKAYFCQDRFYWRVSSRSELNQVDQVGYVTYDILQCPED
melting point,"IC50 [1, 2]","IC50 [1, 3]","IC50 [1, 4]",SMILES
190 °C (dec.),28.2 µM,20.4 µM,24.3 µM,CNC(=C[N+](=O)[O-])NN=Cc1ccc2ccccc2c1 [compound 135]
186 °C (dec.),21.3 µM,29.2 µM,25.3 µM,CNC(=C[N+](=O)[O-])NN=Cc1ccc(Cl)cc1 [compound 136]
172 °C (dec.),17.7 µM,37.1 µM,27.4 µM,CNC(=C[N+](=O)[O-])NN=Cc1ccc(C)cc1 [compound 137]
180 °C (dec.),22.3 µM,21.9 µM,22.6 µM,CNC(=C[N+](=O)[O-])NN=Cc1ccc2c(c1)OCO2 [compound 140]
179 °C (dec.),19.9 µM,18.1 µM,19 µM,CNC(=C[N+](=O)[O-])NN=Cc1ccc2c(c1)OCCO2 [compound 141]
210 °C (dec.),20.4 µM,22.4 µM,21.4 µM,CNC(=C[N+](=O)[O-])NN=Cc1ccc(C(=O)O)cc1 [compound 142]
180 °C (dec.),4.8 µM,14.9 µM,9.9 µM,CNC(=C[N+](=O)[O-])NN=CC=Cc1ccccc1 [compound 144]
221 °C (dec.),1.7 µM,4.1 µM,2.9 µM,CNC(=C[N+](=O)[O-])NNc1cccc(Cl)n1 [compound 145]
210 °C (dec.),18.4 µM,29.4 µM,23.9 µM,CNC(=C[N+](=O)[O-])NNc1ccnc2cc(Cl)ccc12 [compound 146]
235 °C (dec.),35 µM,39.9 µM,37.5 µM,CNC(=C[N+](=O)[O-])NNc1ccnc2cc(C(F)(F)F)ccc12 [compound 147]
272 °C (dec.),33.5 µM,21.7 µM,27.6 µM,CNC(=C[N+](=O)[O-])NNc1nc(-c2ccccc2)nc2ccccc12 [compound 148]
168 °C (dec.),14.8 µM,11.4 µM,13.1 µM,CNC(=C[N+](=O)[O-])NNS(=O)(=O)c1cccc2ccccc12 [compound 150]
209 to 213 °C (dec.),29.6 µM,16.3 µM,23 µM,NNC(=C[N+](=O)[O-])Nc1ccc2cn[nH]c2c1 [compound 152]
210 °C (dec.),38.3 µM,41.8 µM,40.1 µM,NNC(=C[N+](=O)[O-])NS(=O)(=O)c1ccccc1 [compound 156]
170 to 173 °C (dec.),7.9 µM,–,7.9 µM,O=[N+]([O-])C=C(NNc1cc(C(F)(F)F)cc(Cl)n1)NS(=O)(=O)c1ccccc1 [compound 159]
175 to 178 °C (dec.),9.4 µM,–,9.4 µM,COCCNC(=C[N+](=O)[O-])NNc1cc(C(F)(F)F)cc(Cl)n1 [compound 160]
114 to 119 °C (dec.),6 µM,–,6 µM,CCS(=O)(=O)NC(=C[N+](=O)[O-])NNc1cc(C(F)(F)F)cc(Cl)n1 [compound 161]
171 to 174 °C,6.3 µM,–,6.3 µM,O=[N+]([O-])C=C(NNc1cc(C(F)(F)F)cc(Cl)n1)NS(=O)(=O)c1ccc(-c2ccccc2)cc1 [compound 162]
30 to 33 °C,3.2 µM,–,3.2 µM,CC(=C(NNc1cc(C(F)(F)F)cc(Cl)n1)NS(C)(=O)=O)[N+](=O)[O-] [compound 165]
188 to 189 °C,7.8 µM,–,7.8 µM,CNC(=C[N+](=O)[O-])NN=Cc1ccc(C(F)(F)F)cc1 [compound 166]
180 °C,14 µM,–,14 µM,CNC(=C[N+](=O)[O-])NN=Cc1cccc(C(F)(F)F)c1 [compound 167]
197 °C (dec.),7.1 µM,7.3 µM,7.2 µM,CNC(=C[N+](=O)[O-])NNc1cccc(C(F)(F)F)n1 [compound 168]
164 °C (dec.),6 µM,9.6 µM,7.8 µM,O=[N+]([O-])C=C(NCC1CCCO1)NNc1cc(C(F)(F)F)cc(Cl)n1 (centres unmarked) [compound 169]
216 °C (dec.),5.6 µM,–,5.6 µM,CNC(=C[N+](=O)[O-])NNc1ncnc2c(C)csc12 [compound 170]
206 °C (dec.),0.82 µM,1.1 µM,0.96 µM,CNC(=C[N+](=O)[O-])NNc1ccc(Cl)cn1 [compound 172]

# Continued, compound first:
SMILES,melting point,"IC50 [1, 2]","IC50 [1, 3]","IC50 [1, 4]"
CNC(=C[N+](=O)[O-])NNc1nc(OC)nc(OC)n1 [compound 104],202 to 203 °C (dec.),21.1 µM,17.5 µM,19.3 µM
CNC(=C[N+](=O)[O-])NNc1nc(OC)cc(OC)n1 [compound 105],166 to 167 °C (dec.),14.2 µM,17 µM,15.6 µM
CCOc1cc(C(F)(F)F)cc(NNC(=C[N+](=O)[O-])NC)n1 [compound 106],185 to 186 °C (dec.),11.7 µM,8.4 µM,10.1 µM
CNC(=C[N+](=O)[O-])NNS(=O)(=O)c1ccccc1 [compound 109],169 to 170 °C (dec.),20.8 µM,26.9 µM,23.9 µM
NNC(=C[N+](=O)[O-])Nc1ccc2c(c1)OCO2 [compound 110],177 to 180 °C (dec.),35.2 µM,29.3 µM,32.3 µM
Cc1nn(C)c(C)c1NC(=C[N+](=O)[O-])NN [compound 111],210 to 214 °C (dec.),45.5 µM,26.8 µM,36.2 µM
NNC(=C[N+](=O)[O-])NC1Cc2ccccc2C1 [compound 112],193 to 197 °C (dec.),38.2 µM,30.9 µM,34.6 µM
COc1ccc(NC(=C[N+](=O)[O-])NN)cn1 [compound 115],162 to 165 °C,31.8 µM,26.5 µM,29.2 µM
CCNC(=C[N+](=O)[O-])NN [compound 117],93.5 to 98.5 °C,30 µM,39.3 µM,34.7 µM
CNC(=C[N+](=O)[O-])NNc1cc(C(F)(F)F)cc(OCCCc2ccccn2)n1 [compound 118],169 °C (dec.),32.3 µM,35.1 µM,33.7 µM
CNC(=C[N+](=O)[O-])NNc1cc(C(F)(F)F)cc(OCCCc2cccnc2)n1 [compound 119],149 °C (dec.),28 µM,23.4 µM,25.7 µM
CNC(=C[N+](=O)[O-])NNc1cc(C(F)(F)F)cc(OCc2ccco2)n1 [compound 120],154 °C (dec.),39.8 µM,39.4 µM,39.6 µM
CNC(=C[N+](=O)[O-])NNc1cc(C(F)(F)F)cc(OCc2ccccn2)n1 [compound 122],170 °C (dec.),12.6 µM,16.3 µM,14.5 µM
CNC(=C[N+](=O)[O-])NNc1cc(C(F)(F)F)cc(OCc2cccnc2)n1 [compound 123],131 °C (dec.),13.9 µM,12.4 µM,13.2 µM
CNC(=C[N+](=O)[O-])NNc1cc(C(F)(F)F)cc(OCCc2ccccn2)n1 [compound 124],181 °C (dec.),16.1 µM,18.6 µM,17.4 µM
CNC(=C[N+](=O)[O-])NNc1cc(C(F)(F)F)cc(SC)n1 [compound 125],192 °C (dec.),10.1 µM,15.8 µM,13 µM
CNC(=C[N+](=O)[O-])NNc1cc(C(F)(F)F)cc(Oc2ccccc2)n1 [compound 126],141 °C (dec.),29.4 µM,21.8 µM,25.6 µM
CNC(=C[N+](=O)[O-])NNc1ccc2ccccc2n1 [compound 127],202 °C (dec.),1.4 µM,2.8 µM,2.1 µM
CNC(=C[N+](=O)[O-])NNc1cc(C(F)(F)F)cc(OCC2CCCCO2)n1 (centres unmarked) [compound 128],93 to 95 °C,19.2 µM,10.3 µM,13 µM
CNC(=C[N+](=O)[O-])NNc1cc(C(F)(F)F)cc(OCC2CCCO2)n1 (centres unmarked) [compound 129],97 to 99 °C,11.8 µM,6.7 µM,9.3 µM
C=CCOc1cc(C(F)(F)F)cc(NNC(=C[N+](=O)[O-])NC)n1 [compound 130],175 °C (dec.),7.7 µM,8.4 µM,8.1 µM
CNC(=C[N+](=O)[O-])NNc1cc(C(F)(F)F)cc(C)n1 [compound 131],165 °C (dec.),2 µM,3 µM,2.5 µM
CNC(=C[N+](=O)[O-])NNc1nc2ccccc2s1 [compound 132],158 °C (dec.),1.2 µM,2.4 µM,1.8 µM
CNC(=C[N+](=O)[O-])NN=Cc1ccc([N+](=O)[O-])cc1 [compound 138],232 °C (dec.),22.3 µM,15.7 µM,19 µM

# From patent US6596863B2, “Medical composition containing nitroetheneamine Derivative or salt there of as active constituent” (Ishihara Sangyo Kaisha, Ltd., priority 1998, dated 2003)
